Measurements reported in article PMC10303920, “Competition between skin antimicrobial peptides and commensal bacteria in type 2 inflammation enables survival of S. aureus” (Cell reports, 2023).

How the values were obtained:
ShA9-ΔLanti = experiment: Synergistic antimicrobial assay between LL-37 and ShA9 lantibiotics; type: cell-based, Staphylococcus hominis; details: sub-antimicrobial doses of LL-37 (4 or 8 μM) plus conditioned medium from ShA9-WT, 90% RPMI/10% TSB, 30°C, 24 h; Figure 5A
Description: ShA9 or S. epidermidis A11 strains, lantibiotic producing CoNS, were cultured in TSB at 37°C with shake overnight. Bacteria were removed by centrifugation, followed by sterile filtration with 0.22μm membrane. Lantibiotics from each strain was precipitated by adding ammonium sulfate into the sterile conditioned media at 70% saturation. The ammonium sulfate precipitation of conditioned media were dissolved in 90% RPMI1640 supplemented by 10% TSB. ShA9-DLanti mutant or S. hominis C6 strain were cultured in TSB at 37°C overnight and washed with PBS. These strain was incubated with conditioned media precipitation (0–100%) along with 0, 4, 8mM of LL-37 in 90% RPMI/10% TSB at 30°C for 24 h. Concentration of conditioned media precipitation added was calculated based on the original volume of sterile conditioned media. Bacterial survival was evaluated by measuring OD600 or counting CFUs.

[1] = tested on: mixture of S. aureus (ATCC35556), ShA9-WT and ShA9-ΔLanti; experiment: Staphylococcus competition assay in vitro; type: cell-based, Staphylococcus aureus, Staphylococcus hominis; details: RPMI1640, 1 × 10^6 CFU/mL each strain, 30°C, 3 h, Figure 6B
Description: Three Staphylococcus strains, S. aureus (ATCC35556), ShA9-WT (antibiotic-producing strain) or ShA9-Dlanti mutant (non-antimicrobial strain) were individually cultured in TSB. Bacterial cells were washed with PBS and re-suspended in fresh PBS. For in vitro competition assay, three bacterial strains were suspended in RPMI1640 media (1mL) at 1 × 10^6 CFU/mL each and LL-37 was added at 0, 1, 2, 4, 8, 16μM. Bacterial mixture were incubated at 30°C for 3 h without shaking. […] Proportion of three Staphylococcus strains was determined by CFU counting on mannitol salt agar with egg yolk for total Staphylococcus CFU and on Barid-Parker agar for S. aureus. Relative proportion of Staphylococcus species was determined as following; S. aureus: CFUs on Baird-Parker CFU/CFUs on mannitol salt agar, CoNS: CFUs on mannitol salt agar – CFUs on Baird-Parker. Ratio of ShA9-WT to ShA9-DLanti mutant were measured by analyzing 12 colonies of pink color CoNS colonies without halo on mannitol salt agar from each sample with colony PCR using lantibiotic-specific primers (key resources table).
Survival of S. aureus and CoNS were measured on Baird-Parker agar for S. aureus or mannitol salt agar with egg yolk for total Staphylococcus species using easySpiral automatic diluter plater with exponential mode or circle mode and automatic colony counter (Interscience Inc., France). […]

LL-37
Growth of ShA9-ΔLanti with the combination of LL-37 and ShA9 CM containing lantibiotics (ShA9-ΔLanti): synergistically inhibited growth
Shift in relative proportion of the bacterial mixture at lower LL-37 concentrations ([1]; LL-37 1–4 μM): favor growth of S. aureus and ShA9-ΔLanti over the antibiotic-producing ShA9-WT
Effect on the bacterial mixture at higher LL-37 concentrations ([1]; LL-37 8–16 μM): inhibited both the antibiotic-producing CoNS and S. aureus
